# Assays:
# [1] = system: bone marrow hematopoietic stem cells (HSCs); assay: Total body irradiation survival (hematopoietic suppression); format: in vivo, C3H/HeN mice
# Method: FIG. 8A-C: (A) Kaplan Meier Plot of Male C3H/HeN mice 7.75Gy 30 Day TBI (n=30) 50 mg/kg BCN057. (B). Kaplan Meier Plot of Female C3H/HeN mice 7.75Gy 30 Day TBI (n=10) 25 mg/kg BCN057. (C) Cytokine Profile in Plasma Male C3H/HeN mice 7.75Gy TBI Day 8 receiving BCN057.
# 7.75 Gy radiation is used to ablate bone marrow hematopoietic stem cells (HSCs) in these strains of mice. […] Lethality from bone marrow suppression occurs in the 14-25 day region due to the life cycle of approximately 2 weeks for RBC and inability to replace them without HSCs
# 7.73 Gy radiation is used to ablate bone marrow HSCs in the C3H strain of mice.
# lung organoids = assay: Ex vivo 3D lung organoid culture after radiation; format: cell-based, mice; conditions: 6 Gy; 28 μM at 1-hour post-radiation exposure
# Method: 512 induces lung organoid growth in ex vivo cultures: Ex vivo 3D organoid cultures are one of the best models for studying stem cell growth and proliferation because organoid growth depends primarily on the presence of stem cells. For these experiments, mice were euthanized by CO2 or ketamine-xylazine administration and the abdominal aorta was exposed and exsanguinated. The thoracic cavity was opened, and the lungs were exposed. Blood was flushed from the lung vasculature by perfusion with 10 mL of sterile cold PBS through the right ventricle. The trachea was cannulated with a 24-G cannula, and 1.2 mL of 10 U dispase (BD) was then injected into the lungs. The trachea and lungs were removed from the chest en-block and incubated for 20 minutes at room temperature (RT). The lung lobes were dissected from the trachea, heart, and rest of mediastinal structures and then finely minced and incubated for 10 more min with 2 mL of dispase. The suspension was passed through an 18-G needle 4-5 times to help open the lung compartments. If sticky DNA was detected, 10-30 μL of 4 mg/mL DNase I (Sigma) was added to the cell suspension and incubated at 37° C. for 5 min. The cells were filtered through a 100-μ cell strainer (BD Biosciences) to obtain single-cell suspensions (SCS). Red blood cells were lysed using RBC lysing buffer. […]
# [2] = system: human A549 adenocarcinoma cells; assay: A549 xenograft lung colony model in nude mice; format: in vivo; conditions: 20 mg/kg sc once daily for 5 days, with or without 4 Gy LTI x 3, day 72
# Method: LTI alone decreased the number of co […] lonies by 40%. Extensive analysis of the drug doses that would be optimal for exerting effects on tumors in the radiation setting are still needed, but there is no evidence for enhanced tumor growth as a result of radiation treatment with drug, and in fact exactly the opposite. […] Thirty-two nude mice were injected intravenously with 5×10^4 human A549 adenocarcinoma cells on day 1. The drug was administered starting at day 3; 20 mg/kg BCN512 was injected subcutaneously once daily for 5 days. Fractionated radiation was started on day 4, with 4 Gy LTI administered daily for 3 days. Tumors developed very slowly, so the mice were sacrificed on day 72 and the number of nodules in the lungs were counted. There was considerable variation in the irradiated group, with a tendency for lung irradiation to increase the number of tumor colonies. This is not a unique observation that may be ascribed to radiation-induced myeloid cell mobilization.
smiles,measurement,setting,value
"O=[N+]([O-])c1ccc(S(=O)(=O)N2CCN(c3ccccc3)CC2)cc1 [BCN512, 1-[(4-nitrobenezene)sulfonyl]-4-phenyl piperazine]",lethality from bone marrow suppression,"[1]; 7.73 Gy TBI, C3H strain of mice",sufficient to prevent lethality from bone marrow suppression
same,efficacy in total body irradiation experiments,"[1]; Deoxycholate formulation, subcutaneously",good efficacy
same,lung organoid growth,lung organoids,mitigated the radiation damage and induced lung organoid growth
same,number of tumor colonies (lung nodules),[2],did not increase the number of tumor colonies

# From US11229635B2, “Method of treating fibrosis” (BCN Biosciences L.L.C., priority 2016, dated 2022)
